Data taken from patent US20120039826A1, “COSMETIC COMPOSITION FOR SKIN LIGHTENING” (priority 2009, published 2012).

Test system: Keratinocytes (HaCaT cells)
Assay: Keratinocyte differentiation assay
Assay type: cell-based
Settings: HaCaT cells cultured with active 24 hours, acridine orange, % of control (control = 100)
Procedure: Keratinocyte Differentiation Assay
This is an in vitro cell culture based assay to evaluate the capability of these actives to alter cell differentiation process. Keratinocytes (HaCaT cells—5×10^4 cells/well) were grown in 24 well plates for 24 hours. These proliferating keratinocytes were further cultured with actives for 24 hours. Cells were then washed with PBS and stained with acridine orange in PBS (Sigma Chemical Co, USA). Cells were washed 15 minutes later and viewed using an epi-fluorescent microscope (Olympus BX 50), at 20× magnification, using appropriate excitation and barrier filters, to simultaneously view red and green fluorescence (excitation: 460 nm and emission >515 nm). The entire plate was scanned and the percentage of differentiated keratinocytes (cells with red fluorescence evenly distributed within the cytoplasm) was estimated. Data were represented as % of control. Higher % values indicate increased cell differentiation.

Row | Compound | % Differentiation (concentration 0.002%) | % Differentiation (concentration 0.01%)
1 | CC(=O)O.N [Ammonium acetate] | 175% | –
2 | CC(=O)[O-].CC(=O)[O-].[Mg+2] [Magnesium acetate] | 250% | 237%
3 | O=C([O-])C(O)C(O)C(=O)[O-].[Na+].[Na+] (stereo not drawn) [Na tartarate (c4), Na tartarate] | – | 165%
4 | CC(=O)[O-].[Na+] [Sodium acetate] | 175% | 168%
